Data on 14 molecules can be found in ChEMBL document CHEMBL2380261, “Analogs design, synthesis and biological evaluation of peptidomimetics with potential anti-HCV activity” (Bioorg Med Chem, 2013).

Molecules are shown by their SMILES. Where only a bound is given, the exact number is not on record here.

Test system in one series: not listed separately
Kind of series: Inhibition of HCV NS3 protease (1027 to 1206) after 30 mins in presence of Pep4AK. On the set-up: species or system Hepacivirus hominis.
Conditions: not given
A word on the IC50: it is the concentration at which inhibition is half-maximal. Regarding `CC(C)C[C@H](NC(=O)[C@]1(Cc2ccsc2C(=O)O)Cc2ccccc2N1)C(=O)N[C@@H](CC(F)F)C(=O)C(=O)O`, the IC50 came out at 0.7 µM.

Test system in another series: not listed separately
Kind of series: Safety index, ratio of CC50 for human Huh7.5 cells to EC50 for Hepatitis C virus subtype 2a J6/JFH.
Conditions: not given
As for `COC(=O)[C@H](C)NC(=O)CCC(=O)/C=C/c1ccc2c(c1)OCO2`, the selectivity ratio came to 3.19.
The same measure, in the same setting: the same measure for `COC(=O)[C@@H](NC(=O)CCC(=O)/C=C/c1ccc2c(c1)OCO2)C(C)C`: 2.83.
`CC(C)[C@H](NC(=O)CCC(=O)/C=C/c1ccccc1)C(=O)O`: the selectivity ratio is greater than 4.45.
Still for that read-out and setting: for `CCOS(=O)(=O)/C=C/[C@H](Cc1ccccc1)NC(=O)OC(C)(C)C` the value was 2.88.
The same measure, in the same setting: the same measure for `C[C@H](NC(=O)CCC(=O)/C=C/c1ccc2c(c1)OCO2)C(=O)O`: 2.22.
Still for that read-out and setting: the same measure for `COC(=O)[C@@H](NC(=O)CCC(=O)/C=C/c1ccccc1)C(C)C`: 3.88.
Consider `COC(=O)[C@H](C)NC(=O)CCC(=O)/C=C/c1ccccc1`, for which the selectivity ratio was determined as 1.37.
Turning to `CCOS(=O)(=O)/C=C/[C@H](Cc1ccccc1)NC(C)=O`, the selectivity ratio came to 3.75.
Same read-out and setting: the same measure for `COC(=O)[C@@H](NC(=O)CCC(=O)/C=C/c1cccnc1)C(C)C`: 1.38.
`COC(=O)[C@H](C)NC(=O)CCC(=O)/C=C/c1cccnc1`: the selectivity ratio came out at 2.34.
On the same count and under the same terms, for `CCOS(=O)(=O)/C=C/[C@@H](NC(C)=O)[C@@H](C)O` the value was 6.36.

Test system in the next series: not listed separately
Nature of the series: Cytotoxicity against human Huh7.5 cells assessed as cell viability after 48 hrs by Alamar blue assay.
Conditions: not given
For orientation: Alamar Blue is a resazurin reagent that responds to reducing activity.
Usually CC50 stands for the concentration at which the toxic effect on the cells reaches its halfway point. Regarding `COC(=O)[C@H](C)NC(=O)CCC(=O)/C=C/c1ccc2c(c1)OCO2`, the CC50 at 48 h is 1.11 µM.
Same read-out and setting: the same measure for `COC(=O)[C@@H](NC(=O)CCC(=O)/C=C/c1ccc2c(c1)OCO2)C(C)C`: 1.39 µM; for `CC(C)(C)NC(=O)N[C@H](C(=O)N1C[C@H]2[C@@H]([C@H]1C(=O)NC(CC1CCC1)C(=O)C(N)=O)C2(C)C)C(C)(C)C` (stereo partly drawn) [BOCEPREVIR]: greater than 100 µM; for `CC(C)[C@H](NC(=O)CCC(=O)/C=C/c1ccccc1)C(=O)O`: greater than 100 µM.
On to `CCOS(=O)(=O)/C=C/[C@H](Cc1ccccc1)NC(=O)OC(C)(C)C`, for which the CC50 at 48 h was determined as 3.5 µM.
Still for that read-out and setting: the same measure for `C[C@H](NC(=O)CCC(=O)/C=C/c1ccc2c(c1)OCO2)C(=O)O`: 12.1 µM.
Still for that read-out and setting: for `COC(=O)[C@@H](NC(=O)CCC(=O)/C=C/c1ccccc1)C(C)C` the value was 1.48 µM; for `CCOS(=O)(=O)/C=C/[C@H](Cc1ccccc1)NC(=O)CCC(=O)/C=C/c1ccccc1`, 1 µM.
Consider `COC(=O)[C@H](C)NC(=O)CCC(=O)/C=C/c1ccccc1`, for which the CC50 at 48 h was found to be 1.32 µM.
For the molecule `CCOS(=O)(=O)/C=C/[C@H](Cc1ccccc1)NC(C)=O`, the CC50 at 48 h came out at 7.91 µM.
Regarding `COC(=O)[C@@H](NC(=O)CCC(=O)/C=C/c1cccnc1)C(C)C`, the half-maximal cytotoxic concentration (CC50) at 48 h was 1.57 µM.
On the same count and under the same terms, the same measure for `COC(=O)[C@H](C)NC(=O)CCC(=O)/C=C/c1cccnc1`: 2.11 µM; for `CCOS(=O)(=O)/C=C/[C@@H](NC(C)=O)[C@@H](C)O`: 27.7 µM.

The test system of another series is Hepatitis C virus. Kind of series: microbe, parasite or virus in culture. The class given is functional, organism-based, Hepacivirus hominis. The conditions noted are these: genotype 2a J6/JFH, Huh-7, 48 h.
Description: Antiviral activity against Hepatitis C virus subtype 2a J6/JFH transfected in human Huh7.5 cells assessed as inhibition of viral replication after 48 hrs by luciferase reporter gene assay
For orientation: EC50 means the concentration needed to bring the measured effect to its halfway point. A low value points to greater potency. For the molecule `COC(=O)[C@H](C)NC(=O)CCC(=O)/C=C/c1ccc2c(c1)OCO2`, the EC50 is 0.347 µM.
Still for that read-out and setting: for `COC(=O)[C@@H](NC(=O)CCC(=O)/C=C/c1ccc2c(c1)OCO2)C(C)C` the value was 0.682 µM; for `CC(C)(C)NC(=O)N[C@H](C(=O)N1C[C@H]2[C@@H]([C@H]1C(=O)NC(CC1CCC1)C(=O)C(N)=O)C2(C)C)C(C)(C)C` (stereo partly drawn) [BOCEPREVIR], 0.8 µM.
The same measure, in the same setting: the same measure for `CC(C)[C@H](NC(=O)CCC(=O)/C=C/c1ccccc1)C(=O)O`: 22.5 µM; for `CCOS(=O)(=O)/C=C/[C@H](Cc1ccccc1)NC(=O)OC(C)(C)C`: 1.21 µM; for `C[C@H](NC(=O)CCC(=O)/C=C/c1ccc2c(c1)OCO2)C(=O)O`: 5.44 µM.
Same read-out and setting: for `COC(=O)[C@@H](NC(=O)CCC(=O)/C=C/c1ccccc1)C(C)C` the value was 0.381 µM; for `CCOS(=O)(=O)/C=C/[C@H](Cc1ccccc1)NC(=O)CCC(=O)/C=C/c1ccccc1`, 0.296 µM; for `COC(=O)[C@H](C)NC(=O)CCC(=O)/C=C/c1ccccc1`, 0.96 µM.
The molecule `CCOS(=O)(=O)/C=C/[C@H](Cc1ccccc1)NC(C)=O` showed an EC50 of 2.11 µM.
Consider `COC(=O)[C@@H](NC(=O)CCC(=O)/C=C/c1cccnc1)C(C)C`, for which the EC50 was found to be 1.14 µM.
For the molecule `COC(=O)[C@H](C)NC(=O)CCC(=O)/C=C/c1cccnc1`, the response was half-maximal at 0.9 µM (EC50). This EC50 and that of the molecule before are within 1.5-fold of each other.
Molecule `CCOS(=O)(=O)/C=C/[C@@H](NC(C)=O)[C@@H](C)O` gave an EC50 of 4.36 µM.
